In PubChem BioAssay (NCI) one finds TGI data, which are given here for four compounds.

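A five-concentration, 48-hour dose response in 96-well plates underlies each endpoint, interpolated linearly between surrounding concentrations. TGI denotes the concentration required for complete inhibition of growth.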

The subject of one assay is KM12 colon. Description: NCI anticancer screen, dose series, 48 h.
In turn, `COC1=CC(=O)C(C2CC(=O)c3c(O)cc(O)cc3O2)=CC1=O` (centres undefined) came in with a TGI of 32.2 µM.
Same read-out and setting: next, `N=C(N)SCc1ccc2c(c1)Sc1ccccc1O2`: 16.4 µM; `N#CC(C#N)=CNC(N)=S`: greater than 100 µM.
On the same count and under the same terms, next, `N=Nc1c(OC(=O)Nc2cccc(Cl)c2)[nH]c2ccccc12`: 14.3 µM.

The subject of the next assay is OVCAR-5 ovarian. Description: NCI anticancer screen, dose series, 48 h.
The compound `COC1=CC(=O)C(C2CC(=O)c3c(O)cc(O)cc3O2)=CC1=O` (centres undefined) registered a TGI of 41.4 µM.
Regarding `N=C(N)SCc1ccc2c(c1)Sc1ccccc1O2`, the TGI was found to be 25.3 µM.
Same read-out and setting: the figure for `N#CC(C#N)=CNC(N)=S` is greater than 100 µM; for `N=Nc1c(OC(=O)Nc2cccc(Cl)c2)[nH]c2ccccc12` it is 31.2 µM.

The subject of another assay is SK-MEL-5 melanoma. Description: NCI anticancer screen, dose series, 48 h.
`COC1=CC(=O)C(C2CC(=O)c3c(O)cc(O)cc3O2)=CC1=O` (centres undefined) returned a TGI of 31.7 µM.
`N=C(N)SCc1ccc2c(c1)Sc1ccccc1O2` returned a TGI of 3.11 µM.
On the same count and under the same terms, next, `N#CC(C#N)=CNC(N)=S`: greater than 100 µM; `N=Nc1c(OC(=O)Nc2cccc(Cl)c2)[nH]c2ccccc12`: 24 µM.

For a further assay, the system named is TK-10 renal. Description: NCI anticancer screen, dose series, 48 h.
The compound `COC1=CC(=O)C(C2CC(=O)c3c(O)cc(O)cc3O2)=CC1=O` (centres undefined) displayed a TGI of 31.8 µM.
Compound `N=C(N)SCc1ccc2c(c1)Sc1ccccc1O2` showed a TGI of 14.1 µM.
On the same count and under the same terms, the figure for `N=Nc1c(OC(=O)Nc2cccc(Cl)c2)[nH]c2ccccc12` is 24.6 µM.

The test system of the next assay is MALME-3M melanoma. Description: NCI anticancer screen, dose series, 48 h.
As for `COC1=CC(=O)C(C2CC(=O)c3c(O)cc(O)cc3O2)=CC1=O` (centres undefined), the TGI was found to be 34.8 µM.
Still for that read-out and setting: next, `N=C(N)SCc1ccc2c(c1)Sc1ccccc1O2`: 23.1 µM.
Turning to `N#CC(C#N)=CNC(N)=S`, the TGI was greater than 100 µM.
`N=Nc1c(OC(=O)Nc2cccc(Cl)c2)[nH]c2ccccc12` had a TGI of 26.5 µM.

The next assay has as its system BT-549 breast. Description: NCI anticancer screen, dose series, 48 h.
Consider `COC1=CC(=O)C(C2CC(=O)c3c(O)cc(O)cc3O2)=CC1=O` (centres undefined), for which the TGI was determined as 42.9 µM.
Still for that read-out and setting: next, `N=C(N)SCc1ccc2c(c1)Sc1ccccc1O2`: 16.1 µM; `N#CC(C#N)=CNC(N)=S`: greater than 100 µM.
On the same count and under the same terms, next, `N=Nc1c(OC(=O)Nc2cccc(Cl)c2)[nH]c2ccccc12`: 20.1 µM.

The test system of another assay is HCT-116 colon. Description: NCI anticancer screen, dose series, 48 h.
For `COC1=CC(=O)C(C2CC(=O)c3c(O)cc(O)cc3O2)=CC1=O` (centres undefined), the TGI came to 32.9 µM.
Regarding `N=C(N)SCc1ccc2c(c1)Sc1ccccc1O2`, the TGI is 22.3 µM.
The same measure, in the same setting: the figure for `N#CC(C#N)=CNC(N)=S` is greater than 100 µM; for `N=Nc1c(OC(=O)Nc2cccc(Cl)c2)[nH]c2ccccc12` it is 14.1 µM.

For another assay, the system named is SF-295 CNS. Description: NCI anticancer screen, dose series, 48 h.
As for `COC1=CC(=O)C(C2CC(=O)c3c(O)cc(O)cc3O2)=CC1=O` (centres undefined), the TGI stood at 35.1 µM.
Same read-out and setting: next, `N=C(N)SCc1ccc2c(c1)Sc1ccccc1O2`: 24.2 µM; `N#CC(C#N)=CNC(N)=S`: greater than 100 µM; `N=Nc1c(OC(=O)Nc2cccc(Cl)c2)[nH]c2ccccc12`: 5.99 µM.

For a further assay, the system named is COLO 205 colon. Description: NCI anticancer screen, dose series, 48 h.
On to `COC1=CC(=O)C(C2CC(=O)c3c(O)cc(O)cc3O2)=CC1=O` (centres undefined), for which the TGI stood at 32.3 µM.
As for `N=C(N)SCc1ccc2c(c1)Sc1ccccc1O2`, the TGI came out at 17.8 µM.
On the same count and under the same terms, next, `N#CC(C#N)=CNC(N)=S`: greater than 100 µM; `N=Nc1c(OC(=O)Nc2cccc(Cl)c2)[nH]c2ccccc12`: 19.4 µM.

In a further assay the test system is RPMI-8226 leukemia. Description: NCI anticancer screen, dose series, 48 h.
In turn, `COC1=CC(=O)C(C2CC(=O)c3c(O)cc(O)cc3O2)=CC1=O` (centres undefined) came in with a TGI greater than 100 µM.
With `N=C(N)SCc1ccc2c(c1)Sc1ccccc1O2`, the TGI was greater than 36.8 µM.
Still for that read-out and setting: the figure for `N#CC(C#N)=CNC(N)=S` is greater than 100 µM; for `N=Nc1c(OC(=O)Nc2cccc(Cl)c2)[nH]c2ccccc12` it is 10.7 µM.

A further assay relates to HL-60(TB) leukemia. Description: NCI anticancer screen, dose series, 48 h.
On to `COC1=CC(=O)C(C2CC(=O)c3c(O)cc(O)cc3O2)=CC1=O` (centres undefined), for which the TGI is greater than 21.3 µM.
`N=C(N)SCc1ccc2c(c1)Sc1ccccc1O2`: the TGI is greater than 63 µM.
In turn, `N#CC(C#N)=CNC(N)=S` displayed a TGI greater than 100 µM.
The compound `N=Nc1c(OC(=O)Nc2cccc(Cl)c2)[nH]c2ccccc12` had a TGI of 30.9 µM.

Another assay concerns MDA-N. Description: NCI anticancer screen, dose series, 48 h.
`COC1=CC(=O)C(C2CC(=O)c3c(O)cc(O)cc3O2)=CC1=O` (centres undefined) yielded a TGI of 29.7 µM.
Same read-out and setting: next, `N=C(N)SCc1ccc2c(c1)Sc1ccccc1O2`: 19 µM.
Regarding `N#CC(C#N)=CNC(N)=S`, the TGI was greater than 100 µM.
On the same count and under the same terms, next, `N=Nc1c(OC(=O)Nc2cccc(Cl)c2)[nH]c2ccccc12`: 10.1 µM.

A further assay relates to CCRF-CEM leukemia. Description: NCI anticancer screen, dose series, 48 h.
Compound `COC1=CC(=O)C(C2CC(=O)c3c(O)cc(O)cc3O2)=CC1=O` (centres undefined) yielded a TGI of 2.42 µM.
`N=C(N)SCc1ccc2c(c1)Sc1ccccc1O2` registered a TGI greater than 54.1 µM.
Still for that read-out and setting: next, `N#CC(C#N)=CNC(N)=S`: greater than 100 µM; `N=Nc1c(OC(=O)Nc2cccc(Cl)c2)[nH]c2ccccc12`: 21.9 µM.

The next assay concerns DU-145 prostate. Description: NCI anticancer screen, dose series, 48 h.
With `COC1=CC(=O)C(C2CC(=O)c3c(O)cc(O)cc3O2)=CC1=O` (centres undefined), the TGI amounted to 35.3 µM.
Same read-out and setting: next, `N=C(N)SCc1ccc2c(c1)Sc1ccccc1O2`: 28.7 µM; `N#CC(C#N)=CNC(N)=S`: greater than 100 µM.
Same read-out and setting: the figure for `N=Nc1c(OC(=O)Nc2cccc(Cl)c2)[nH]c2ccccc12` is 20.3 µM.

For another assay, the system named is SNB-75 CNS. Description: NCI anticancer screen, dose series, 48 h.
On to `COC1=CC(=O)C(C2CC(=O)c3c(O)cc(O)cc3O2)=CC1=O` (centres undefined), for which the TGI is 39.7 µM.
Turning to `N=C(N)SCc1ccc2c(c1)Sc1ccccc1O2`, the TGI is 18.2 µM.
The same measure, in the same setting: the figure for `N#CC(C#N)=CNC(N)=S` is greater than 100 µM; for `N=Nc1c(OC(=O)Nc2cccc(Cl)c2)[nH]c2ccccc12` it is 17.9 µM.
